Measured values: patent publication US20050096347A1, “Beta3-Adrenoreceptor agonists, agonist compositions and methods of using” (Molecular Design International, Inc., priority 1997, published 2005)
Counter-ions that a name gives are not always drawn.

Legend:
Human β1-AR = Human β1-AR (Homo sapiens, UniProt P08588); test: CRE-luciferase reporter gene (CRE-LUC) assay, CHO cells expressing human β1-AR
Protocol: (§1) cAMP response element (CRE)-luciferase(LUC) reporter gene (CRE-LUC) assay. […] The transfected CHO cells were seeded at a density of 40,000/well in 96 well microtiter plates (Culturplate, Packard) and allowed to grow for 20 hours. After 20 hours, the cells were treated with varying drug concentrations (10^−11 to 10^−4 M) for 4 hours. Following drug exposures, the cells were lysed and luciferase activity measured using the LucLite® assay kit (Packard). Changes in light production were measured by a Topcount® luminometer (Packard).

Human β2-AR = Human β2-AR (Homo sapiens, UniProt P07550); test: CRE-luciferase reporter gene (CRE-LUC) assay, CHO cells expressing human β2-AR
Protocol: as §1

Human β3-AR = Human β3-AR (Homo sapiens, UniProt P13945); test: CRE-luciferase reporter gene (CRE-LUC) assay, CHO cells expressing human β3-AR
Sequence of Human β3-AR (P13945 whole entry): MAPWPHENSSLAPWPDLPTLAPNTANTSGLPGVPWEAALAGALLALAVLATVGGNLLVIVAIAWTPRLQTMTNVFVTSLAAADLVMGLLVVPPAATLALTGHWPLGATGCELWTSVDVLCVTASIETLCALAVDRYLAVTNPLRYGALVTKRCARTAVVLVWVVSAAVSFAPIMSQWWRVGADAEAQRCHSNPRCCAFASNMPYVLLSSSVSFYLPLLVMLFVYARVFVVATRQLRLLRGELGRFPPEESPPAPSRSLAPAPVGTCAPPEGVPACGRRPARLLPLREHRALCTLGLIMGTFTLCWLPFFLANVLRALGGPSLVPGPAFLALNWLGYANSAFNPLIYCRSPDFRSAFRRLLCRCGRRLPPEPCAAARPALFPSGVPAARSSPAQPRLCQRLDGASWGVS
Protocol: as §1

Sequence of Human β2-AR (P07550 whole entry): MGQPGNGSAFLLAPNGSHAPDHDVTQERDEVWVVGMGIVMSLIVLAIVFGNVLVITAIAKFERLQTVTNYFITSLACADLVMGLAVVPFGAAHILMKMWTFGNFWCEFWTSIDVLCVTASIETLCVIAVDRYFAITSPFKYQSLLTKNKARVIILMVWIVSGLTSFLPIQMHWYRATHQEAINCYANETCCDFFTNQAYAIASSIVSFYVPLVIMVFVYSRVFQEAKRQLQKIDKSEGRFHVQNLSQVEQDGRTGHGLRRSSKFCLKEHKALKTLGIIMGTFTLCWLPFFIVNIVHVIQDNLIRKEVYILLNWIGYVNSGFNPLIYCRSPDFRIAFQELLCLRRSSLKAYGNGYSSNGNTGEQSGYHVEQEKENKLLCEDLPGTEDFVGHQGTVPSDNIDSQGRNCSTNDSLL
Sequence of Human β1-AR (P08588 whole entry): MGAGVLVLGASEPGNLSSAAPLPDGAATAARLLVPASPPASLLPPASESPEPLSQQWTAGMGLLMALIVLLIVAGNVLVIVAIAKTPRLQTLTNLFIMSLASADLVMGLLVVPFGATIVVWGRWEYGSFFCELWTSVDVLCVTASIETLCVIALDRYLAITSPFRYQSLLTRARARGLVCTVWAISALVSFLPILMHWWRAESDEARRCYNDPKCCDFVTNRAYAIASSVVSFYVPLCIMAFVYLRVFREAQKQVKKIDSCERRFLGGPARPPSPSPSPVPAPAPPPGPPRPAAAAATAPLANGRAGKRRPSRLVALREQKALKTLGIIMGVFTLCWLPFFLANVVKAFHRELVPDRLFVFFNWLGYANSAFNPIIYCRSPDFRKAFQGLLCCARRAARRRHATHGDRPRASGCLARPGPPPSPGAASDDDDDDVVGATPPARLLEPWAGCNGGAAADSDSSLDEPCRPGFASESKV

| SMILES | melting point | EC50 (Human β1-AR) | EC50 (Human β2-AR) | EC50 (Human β3-AR) |
| --- | --- | --- | --- | --- |
| COc1cc2c(cc1OC)C(Cc1cc(I)c(NC(C)=O)c(I)c1)NCC2 (stereo not shown) (as salt: hydrochloride) [6,7-Dimethoxy-acetamidoDITMQ, 1-(4-Acetamido-3,5-diiodobenzyl)-6,7-dimethoxy-1,2,3,4-tetrahydroisoquinoline Hydrochloride] | 196 to 200 °C (dec.) |  |  |  |
| COc1c(I)cc(CC2NCCc3cc(O)ccc32)cc1I (stereo not shown) [6-Monophenolic TMQ analog (A-4)] |  | 1950 nM | 229 nM | 35.5 nM |
